Data as given in patent US11109593B2, “Isoxazolin-5-one derivative and herbicide containing same as active ingredient” (HOKKO CHEMICAL INDUSTRY CO., LTD., priority 2017, dated 2021).

What was measured:
Type in all cases: in vivo
southern crabgrass = assay: Test Example 3: herbicidal effect test by treatment of dry field farming soil (one day after seeding); settings: 120 g/10a active ingredient, evaluated 14 days after treatment
Description: (§1) This test was conducted in a double system per one agent solution concentration area, and the herbicidal rates (%) were determined by the following equation (Math. 1) on 14 days after the treatment with the agents. Herbicidal Rate (%)={1-(Average Dry Weight (g) of Plant of Treated Area)/(Average Dry Weight (g) of Plant of Untreated Area)}×100 [Math. 1]
(§2) Herbicidal Effect Test by Treatment of Dry Field Farming Soil
(§3) Pots with a size of 36 cm^2 were filled with a dry field farming soil (alluvium). The soil of the top layer of 1 cm and seeds of weeds, namely southern crabgrass, Echinochloa crus-galli, Chenopodium album and Amaranthus viridis, 20 seeds each, were evenly mixed, and the top layer was gently pressed. Emulsions prepared using the compounds in Table 5 below according to Formulation Example 5 were diluted with water one day after seeding, and the water-diluted agent solutions were sprayed to the soil surfaces at a ratio of 100 liters per 10 ares. The converted amount of the applied active ingredient corresponded to 120 g per 10 ares. The herbicidal effects were evaluated by the same standard as that in Test Example 1 on 14 days after the treatment with the agents. […] The compound numbers in Table 5 are the same as those in Table 1 and Table 2 above.

Echinochloa crus-galli [1] = assay: as above; settings: 120 g/10a active ingredient, evaluated 14 days after treatment
Description: as §1, §2, §3

Chenopodium album = assay: as above; settings: 120 g/10a active ingredient, evaluated 14 days after treatment
Description: as §1, §2, §3

Amaranthus viridis = assay: as above; settings: 120 g/10a active ingredient, evaluated 14 days after treatment
Description: as §1, §2, §3

[2] = test system: broad leaf weeds (Lindernia pyxidaria and Monochoria vaginalis); assay: Test Example 2: herbicidal effect test by treatment during growing period in paddy rice cultivation (seven days after seeding); settings: 120 g/10a active ingredient, assessed 14 days after treatment, dry weight vs untreated area
Method in brief: (§4)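 Herbicidal rate (%) = {1 − treated/untreated mean plant dry weight} × 100, assessed in duplicate 14 days post-treatment. Emulsion formulations were diluted in water and dropped onto flooded (about 3 cm) paddy pots 7 days after seeding, giving 120 g a.i. per 10 ares. Plants were grown in a glass greenhouse.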

Echinochloa crus-galli [3] = assay: as above; settings: 120 g/10a active ingredient, assessed 14 days after treatment, dry weight vs untreated area
Method in brief: as §4

Scirpus juncoides [4] = assay: as above; settings: 120 g/10a active ingredient, assessed 14 days after treatment, dry weight vs untreated area
Method in brief: as §4

[5] = test system: broad leaf weeds (Lindernia pyxidaria and Monochoria vaginalis); assay: Test Example 1: herbicidal effect test by treatment of rice paddy soil (immediately after seeding)
Method in brief: (§5)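 Application occurs immediately after seeding, with diluted emulsion added to paddy water (about 3 cm deep) over puddled, fertilized soil at 120 g active ingredient per 10 ares. Herbicidal rate is calculated from mean dry weight against untreated controls 14 days later.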

Echinochloa crus-galli [6] = assay: as above
Method in brief: as §5

Scirpus juncoides [7] = assay: as above
Method in brief: as §5

[8] = Lindernia pyxidaria, 120 g/10a active ingredient, dry weight vs untreated area, 14 days after treatment
[9] = Monochoria vaginalis, 120 g/10a active ingredient, dry weight vs untreated area, 14 days after treatment
[10] = 120 g/10a active ingredient, dry weight vs untreated area, 14 days after treatment
[11] = Lindernia pyxidaria, 120 g/10a active ingredient, 14 days after treatment, dry weight vs untreated area
[12] = Monochoria vaginalis, 120 g/10a active ingredient, 14 days after treatment, dry weight vs untreated area
[13] = 120 g/10a active ingredient, 14 days after treatment, dry weight vs untreated area

| SMILES | herbicidal rate, southern crabgrass (southern crabgrass) [%] | herbicidal rate, Echinochloa crus-galli (Echinochloa crus-galli [1]) [%] | herbicidal rate, Chenopodium album (Chenopodium album) [%] | herbicidal rate, Amaranthus viridis (Amaranthus viridis) [%] | Herbicidal rate (%) Lindernia pyxidaria [2] [%] | Herbicidal rate (%) Monochoria vaginalis [2] [%] | Herbicidal rate (%) Echinochloa crus-galli (Echinochloa crus-galli [3]) [%] | Herbicidal rate (%) Scirpus juncoides (Scirpus juncoides [4]) [%] | Herbicidal rate (%) Lindernia pyxidaria [5, 8] [%] | Herbicidal rate (%) Monochoria vaginalis [5, 9] [%] | Herbicidal rate (%) Echinochloa crus-galli (Echinochloa crus-galli [6]; [10]) [%] | Herbicidal rate (%) Scirpus juncoides (Scirpus juncoides [7]; [10]) [%] | Herbicidal rate (%) Lindernia pyxidaria [5, 11] [%] | Herbicidal rate (%) Monochoria vaginalis [5, 12] [%] | Herbicidal rate (%) Echinochloa crus-galli (Echinochloa crus-galli [6]; [13]) [%] | Herbicidal rate (%) Scirpus juncoides (Scirpus juncoides [7]; [13]) [%] |
| --- | --- | --- | --- | --- | --- | --- | --- | --- | --- | --- | --- | --- | --- | --- | --- | --- |
| CCC(C)Cn1oc(=O)c(Cc2ccccc2N(S(=O)(=O)C(F)(F)F)S(=O)(=O)C(F)(F)F)c1C (stereo not drawn) [Compound 1-972] | 90 | 90 | 100 | 100 | 80 | 100 | 100 | 90 | 100 | 100 | 100 | 100 | – | – | – | – |
| Cc1c(Cc2ccccc2NS(=O)(=O)C(F)(F)F)c(=O)on1C(C)c1ccccc1 (stereo not drawn) [Compound 1-203] | 90 | 60 | 40 | 40 | 90 | 90 | 90 | 90 | 100 | 100 | 90 | 90 | – | – | – | – |
| Cc1c(Cc2ccccc2NS(=O)(=O)C(F)(F)F)c(=O)on1CC1(C)COC1 [Compound 1-229] | 60 | 40 | 40 | 60 | 60 | 90 | 70 | 90 | 80 | 100 | 70 | 90 | – | – | – | – |
| Cc1c(Cc2ccccc2NS(=O)(=O)C(F)(F)F)c(=O)on1CCc1ccccc1 [Compound 1-216] | 70 | 60 | 0 | 40 | 100 | 100 | 90 | 90 | 100 | 100 | 90 | 100 | – | – | – | – |
| Cc1c(Cc2ccccc2N(S(=O)(=O)C(F)(F)F)S(=O)(=O)C(F)(F)F)c(=O)on1C1CCc2ccccc21 (stereo not drawn) [Compound 1-1049] | 80 | 90 | 50 | 50 | 60 | 70 | 80 | 70 | – | – | – | – | 90 | 80 | 90 | 90 |
| CCCCn1oc(=O)c(Cc2ccccc2N(S(=O)(=O)C(F)(F)F)S(=O)(=O)C(F)(F)F)c1C [Compound 1-969] | 80 | 90 | 40 | 40 | 60 | 90 | 100 | 90 | 100 | 80 | 100 | 90 | – | – | – | – |
| CC(C)n1oc(=O)c(Cc2ccccc2NS(=O)(=O)C(F)(F)F)c1C1CC1 [Compound 1-83] | 40 | 50 | 40 | 40 | 40 | 40 | 40 | 60 | 100 | 70 | 90 | 90 | – | – | – | – |
| CCCOC(=O)N(c1ccccc1Cc1c(C)n(C(C)(C)C)oc1=O)S(=O)(=O)C(F)(F)F [Compound 1-631] | 90 | 90 | 90 | 90 | 90 | 90 | 90 | 90 | 90 | 90 | 90 | 90 | – | – | – | – |
| Cc1c(Cc2ccccc2NS(=O)(=O)C(F)(F)F)c(=O)on1CCCc1ccccc1 [Compound 1-221] | 50 | 70 | 40 | 50 | 40 | 40 | 60 | 40 | 70 | 60 | 90 | 80 | – | – | – | – |
| Cc1c(Cc2ccccc2N(S(=O)(=O)C(F)(F)F)S(=O)(=O)C(F)(F)F)c(=O)on1CC1(C)CO1 (stereo not drawn) [Compound 1-1051] | 80 | 80 | 60 | 80 | 40 | 80 | 90 | 90 | – | – | – | – | 60 | 80 | 80 | 100 |
